Measurements reported in patent US11096924B2, “Combination therapies using immuno-dash inhibitors and PGE2 antagonists” (Trustees of Tufts College, priority 2016, dated 2021).
Several values for one entry are separate records, joined by “and”; a condition that tells them apart may be missing. Equal values may be shown once. Read-outs that look alike come from different tables or passages of the source. Values belong to the compound of their own block, whether it stands above or below them.

Tests used:
macrophages = test: Pyroptosis of macrophages in cell culture; type: cell-based; details: Macrophage; Example 2 table; unit inferred
[1] = target: recombinant human dipeptidyl peptidase II (DPPII) (Homo sapiens (Human), UniProt Q9UHL4); test: In vitro inhibition assay, dipeptidyl peptidase II; type: biochemical
[2] = target: recombinant human dipeptidyl peptidase IV (DPPIV) (Homo sapiens (Human), UniProt P27487); test: In vitro inhibition assay, dipeptidyl peptidase IV; type: biochemical
recombinant human dipeptidyl peptidase IV (DPPIV), sequence (P27487 whole entry): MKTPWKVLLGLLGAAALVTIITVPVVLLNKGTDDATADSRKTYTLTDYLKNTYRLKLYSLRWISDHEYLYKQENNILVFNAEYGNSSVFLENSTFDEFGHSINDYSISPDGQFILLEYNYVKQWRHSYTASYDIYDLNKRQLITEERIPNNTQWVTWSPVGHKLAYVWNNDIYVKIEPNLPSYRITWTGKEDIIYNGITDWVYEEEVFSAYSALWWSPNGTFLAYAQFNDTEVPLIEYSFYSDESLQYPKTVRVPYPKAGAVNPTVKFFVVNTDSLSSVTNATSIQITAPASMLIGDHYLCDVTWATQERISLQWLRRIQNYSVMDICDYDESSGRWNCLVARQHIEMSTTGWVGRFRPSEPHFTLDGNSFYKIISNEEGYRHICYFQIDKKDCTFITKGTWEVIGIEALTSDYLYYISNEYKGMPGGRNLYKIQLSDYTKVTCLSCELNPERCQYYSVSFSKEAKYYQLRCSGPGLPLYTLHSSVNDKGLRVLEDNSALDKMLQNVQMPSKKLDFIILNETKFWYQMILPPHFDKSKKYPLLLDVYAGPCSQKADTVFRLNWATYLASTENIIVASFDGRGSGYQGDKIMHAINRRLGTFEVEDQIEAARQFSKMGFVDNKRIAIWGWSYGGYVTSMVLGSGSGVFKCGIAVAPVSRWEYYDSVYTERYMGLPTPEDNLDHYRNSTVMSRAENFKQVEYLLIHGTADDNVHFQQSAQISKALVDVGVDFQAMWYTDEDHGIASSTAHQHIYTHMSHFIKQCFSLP

DPP4 = DPP4 (Homo sapiens (Human), UniProt P27487); test: EnPlex assay DPP4; type: biochemical
DPP4, sequence (P27487 whole entry): as above

[3] = Oral PK profile in mice, plasma drug concentrations; type: in vivo, BALB/c mice; details: 3 mg/kg oral gavage, individual mice #1-#3
Experimental: Example 8. […] Drugs dissolved in pH 2 water at 0.3 mg/mL. […] 2. Plasma prepared by centrifugation. 3. Drug concentrations measured by LCMS.

DPP7 = DPP7 (Homo sapiens (Human), UniProt Q9UHL4); test: EnPlex assay DPP7; type: biochemical
[4] = test system: MB49 murine urothelial carcinoma cell line; test: MB49 efficacy studies in tumor bearing mice; type: in vivo
[5] = target: recombinant human dipeptidyl peptidase 8 (DPP8) (Homo sapiens (Human), UniProt Q6V1X1); test: In vitro inhibition assay, dipeptidyl peptidase 8; type: biochemical
recombinant human dipeptidyl peptidase 8 (DPP8), sequence (Q6V1X1 whole entry): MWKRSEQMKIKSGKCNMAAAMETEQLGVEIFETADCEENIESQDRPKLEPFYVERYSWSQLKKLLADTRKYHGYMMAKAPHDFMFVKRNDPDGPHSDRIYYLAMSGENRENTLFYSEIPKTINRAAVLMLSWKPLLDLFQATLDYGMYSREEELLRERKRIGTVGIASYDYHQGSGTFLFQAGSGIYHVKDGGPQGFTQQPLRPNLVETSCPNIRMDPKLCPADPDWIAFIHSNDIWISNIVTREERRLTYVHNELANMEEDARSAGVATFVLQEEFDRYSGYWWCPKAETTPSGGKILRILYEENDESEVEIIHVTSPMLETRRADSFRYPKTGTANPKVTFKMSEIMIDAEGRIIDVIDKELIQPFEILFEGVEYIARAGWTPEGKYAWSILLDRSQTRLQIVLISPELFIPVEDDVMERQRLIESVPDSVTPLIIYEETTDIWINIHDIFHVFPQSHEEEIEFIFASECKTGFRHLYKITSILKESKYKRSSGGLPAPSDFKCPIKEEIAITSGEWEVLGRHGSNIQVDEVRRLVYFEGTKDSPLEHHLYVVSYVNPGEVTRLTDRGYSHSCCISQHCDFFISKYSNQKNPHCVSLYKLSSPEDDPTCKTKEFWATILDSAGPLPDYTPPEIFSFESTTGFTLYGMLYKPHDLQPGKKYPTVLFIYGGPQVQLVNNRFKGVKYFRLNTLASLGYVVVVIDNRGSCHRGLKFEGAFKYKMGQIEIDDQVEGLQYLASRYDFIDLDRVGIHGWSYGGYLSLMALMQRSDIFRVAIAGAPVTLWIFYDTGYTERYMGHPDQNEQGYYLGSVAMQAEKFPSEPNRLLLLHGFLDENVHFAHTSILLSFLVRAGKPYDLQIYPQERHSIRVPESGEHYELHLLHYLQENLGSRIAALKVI

[6] = target: recombinant human fibroblast activation protein (FAP) (Homo sapiens (Human), UniProt Q12884); test: In vitro inhibition assay, fibroblast activation protein; type: biochemical
recombinant human fibroblast activation protein (FAP), sequence (Q12884 whole entry): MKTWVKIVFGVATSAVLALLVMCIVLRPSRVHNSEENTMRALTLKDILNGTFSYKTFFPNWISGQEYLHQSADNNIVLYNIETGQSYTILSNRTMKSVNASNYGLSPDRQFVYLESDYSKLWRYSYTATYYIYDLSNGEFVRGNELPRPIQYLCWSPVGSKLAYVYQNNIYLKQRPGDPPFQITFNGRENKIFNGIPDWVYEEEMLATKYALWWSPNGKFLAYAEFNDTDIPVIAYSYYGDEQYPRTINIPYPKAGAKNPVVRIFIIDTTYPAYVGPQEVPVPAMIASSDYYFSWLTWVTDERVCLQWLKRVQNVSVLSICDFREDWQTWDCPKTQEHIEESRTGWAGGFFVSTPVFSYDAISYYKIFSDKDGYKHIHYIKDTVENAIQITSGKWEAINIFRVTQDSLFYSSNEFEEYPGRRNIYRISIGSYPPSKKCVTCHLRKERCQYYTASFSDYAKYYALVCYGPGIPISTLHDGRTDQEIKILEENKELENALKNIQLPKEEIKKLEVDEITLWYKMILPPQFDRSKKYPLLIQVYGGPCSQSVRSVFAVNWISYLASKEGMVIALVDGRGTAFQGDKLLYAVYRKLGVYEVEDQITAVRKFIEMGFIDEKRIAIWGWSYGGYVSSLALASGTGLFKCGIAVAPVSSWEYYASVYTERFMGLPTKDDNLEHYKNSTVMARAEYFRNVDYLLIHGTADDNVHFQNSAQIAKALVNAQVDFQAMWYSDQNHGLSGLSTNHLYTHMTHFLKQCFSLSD

[7] = Maximum tolerated dose study (single dose) in Sprague Dawley rats; type: in vivo; details: SD rats, based on serum drug levels, with Pyrrophenone or AACOCF3
Description: Bars show the MTD single dose in SD rats prior to seeing animal death. […] See also FIG. 17 for a similar comparison using cPLA2 inhibitors instead of COX inhibitors.
Bars show the MTD single dose in SD rats prior to seeing animal death. Based on serum drug levels, the addition of a cPLA2 inhibitor to the I-DASH inhibitor increases that MTD dose by at least 20-fold.
Bars show the MTD single dose in SD rats prior to seeing animal death.

RAW 264.7 WT cells = test: Pyroptosis in RAW 264.7 WT cells; type: cell-based; details: Mus musculus, RAW264.7
THP-1 sgGFP = test: Pyroptosis in THP-1 sgGFP cells; type: cell-based; details: Homo sapiens
MV4; 11 Luc-Neo = test: Pyroptosis in MV4;11 Luc-Neo cells; type: cell-based; details: Homo sapiens
[8] = phase I trial of talabostat and rituximab in rituximab-resistant lymphoma; cited from earlier work
[9] = male, BALB/c, mouse, plasma, oral, 3 mg/kg, 5 min post-dose
[10] = male, BALB/c, mouse, plasma, oral, 3 mg/kg, 20 min post-dose
[11] = male, BALB/c, mouse, plasma, oral, 3 mg/kg, 30 min post-dose
[12] = male, BALB/c, mouse, plasma, oral, 3 mg/kg, 40 min post-dose
[13] = male, BALB/c, mouse, plasma, oral, 3 mg/kg, 120 min post-dose
[14] = male, BALB/c, mouse, plasma, oral, 3 mg/kg, 240 min post-dose

IC50 (macrophages): 11000 nM
SMILES: C[C@H](N)C(=S)N1CCC[C@H]1B(O)O [ARI-2243]
Average [G-CSF] at 6 hrs (G-CSF; 20 μg/animal PO): 330 pg/mL
Average [G-CSF] at 6 hrs (G-CSF; 50 μg/animal IP): 2100 pg/mL
Average [G-CSF] at 6 hrs (G-CSF; 100 μg/animal IP): 2400 pg/mL
Average [G-CSF] at 6 hrs (G-CSF; 300 μg/animal IP): 4400 pg/mL

SMILES: N[C@@H](CC(=O)N1CCn2c(nnc2C(F)(F)F)C1)Cc1cc(F)c(F)cc1F [Sitagiptin, reference compound]
Average [G-CSF] at 6 hrs (G-CSF; 100 μg/animal SC): 100 pg/mL
Average [G-CSF] at 6 hrs (G-CSF; 1000 μg/animal PO): 340 pg/mL
Average [G-CSF] at 6 hrs (G-CSF; 2000 μg/animal SC): 950 pg/mL

SMILES: CC1([C@H](N)C(=O)N2CCC[C@H]2B(O)O)CCCCC1 (relative stereo) [ARI-4175CH]
IC50 ([1]; DPP2): 54 nM
IC50 [2]: 2.8 nM
IC50 (DPP4): 0.005 nM
concentration in Plasma ([3]; 5 min post-dose): 230 nM and 420 nM
concentration in Plasma ([3]; 10 min post-dose): 250 nM and 90 nM
concentration in Plasma ([3]; 20 min post-dose): 230 nM and 270 nM
concentration in Plasma ([3]; 30 min post-dose): 130 nM
concentration in Plasma ([3]; 40 min post-dose): 250 nM and 190 nM
concentration in Plasma ([3]; 60 min post-dose): 0 nM and 90 nM
concentration in Plasma ([3]; 120 min post-dose): 70 nM and 90 nM
concentration in Plasma ([3]; 240 min post-dose): 10 nM
concentration at 5 min [3, 9]: 280 nM
concentration at 20 min [3, 10]: 230 nM
concentration at 30 min [3, 11]: 240 nM
concentration at 40 min [3, 12]: 170 nM
concentration at 120 min [3, 13]: 70 nM
concentration at 240 min [3, 14]: 10 nM
IC50 (DPP7): > 100 nM
Average [G-CSF] at 6 hrs (G-CSF; 5 μg/animal PO): 1100 pg/mL
Average [G-CSF] at 6 hrs (G-CSF; 20 μg/animal PO): 51000 pg/mL
Average [G-CSF] at 6 hrs (G-CSF; 20 μg/animal SC): 60000 pg/mL

IC50 (macrophages): 13 nM
SMILES: CC[C@@H](C)[C@H](N)C(=O)N1CCC[C@H]1B(O)O [compound 4317]

SMILES: CC(C)(F)[C@H](N)C(=O)N1CCC[C@H]1B(O)O (relative stereo) [ARI-4268]
IC50 ([1]; DPP2): 68 nM
IC50 [2]: 12 nM

SMILES: N[C@H](C(=O)N1CCC[C@H]1B(O)O)C1(C(F)(F)F)CC1 [compound 4949]
IC50 ([1]; DPP2): 39 nM

SMILES: CC1(C)CN[C@@H]1C(=O)N1CCC[C@H]1B(O)O (relative stereo) [compound 5362]
IC50 ([1]; DPP2): 67 nM
IC50 [2]: 0.5 nM

SMILES: NC(N)=NCCC[C@H](N)C(=O)N1CCC[C@H]1B(O)O [Arg-boroPro]
Average [G-CSF] at 6 hrs (G-CSF; 20 μg/animal PO): 320 pg/mL
Average [G-CSF] at 6 hrs (G-CSF; 20 μg/animal SC): 160 pg/mL
Average [G-CSF] at 6 hrs (G-CSF; 200 μg/animal PO): 930 pg/mL
Average [G-CSF] at 6 hrs (G-CSF; 200 μg/animal SC): 670 pg/mL
Average [G-CSF] at 6 hrs (G-CSF; 2000 μg/animal PO): 3500 pg/mL
Average [G-CSF] at 6 hrs (G-CSF; 2000 μg/animal SC): 31000 pg/mL

SMILES: N[C@H](C(=O)N1CCC[C@H]1B(O)O)C12CC3CC(CC(Cl)(C3)C1)C2 (relative stereo) [ARI-3102C]
IC50 [2]: 6 nM
IC50 (DPP4): 0.006 nM

IC50 (macrophages): > 10000 nM
SMILES: CN(CB(O)O)C(=O)[C@@H](N)CCC(=O)O [compound 2408]

SMILES: CC(C)(C)[C@H](N)C(=O)N1CCC[C@H]1B(O)O [ARI-4175]
Average [G-CSF] at 6 hrs (G-CSF; 20 μg/animal PO): 19000 pg/mL
Average [G-CSF] at 6 hrs (G-CSF; 20 μg/animal SC): 65000 pg/mL

IC50 (macrophages): 21 nM
SMILES: CC[C@H](C)[C@H](N)C(=O)N1CCC[C@H]1B(O)O [compound 4316, theoric-boroPro]
Average [G-CSF] at 6 hrs (G-CSF; 20 μg/animal PO): 5000 pg/mL

SMILES: N[C@H](C(=O)N1CCC[C@H]1B(O)O)C12CC3CC(CC(C3)C1)C2 (relative stereo) [ARI-5544, Gly(1-adamantyl)-boroPro]
IC50 ([1]; DPP2): 27 nM
IC50 ([1]; compound incubated at room temperature overnight at pH 2.0 or pH 7.4 prior to the assays, read-out: DPPII IC50): 21 nM
concentration in Plasma ([3]; 5 min post-dose): 110 nM and 220 nM
concentration in Plasma ([3]; 20 min post-dose): 170 nM and 180 nM
concentration in Plasma ([3]; 30 min post-dose): 220 nM and 170 nM
concentration in Plasma ([3]; 40 min post-dose): 130 nM and 140 nM
concentration in Plasma ([3]; 60 min post-dose): 110 nM and 90 nM
concentration in Plasma ([3]; 120 min post-dose): 30 nM and 50 nM
concentration in Plasma ([3]; 240 min post-dose): 10 nM and 20 nM
concentration at 5 min [3, 9]: 160 nM
concentration at 10 min ([3]; male, BALB/c, mouse, plasma, oral, 3 mg/kg, 10 min post-dose): 270 nM
concentration at 20 min [3, 10]: 140 nM
concentration at 30 min [3, 11]: 110 nM
concentration at 40 min [3, 12]: 120 nM
concentration at 60 min ([3]; male, BALB/c, mouse, plasma, oral, 3 mg/kg, 60 min post-dose): 80 nM
concentration at 120 min [3, 13]: 30 nM
concentration at 240 min [3, 14]: 20 nM
Average [G-CSF] at 6 hrs (G-CSF; 5 μg/animal PO): 650 pg/mL
Average [G-CSF] at 6 hrs (G-CSF; 20 μg/animal PO): 30000 pg/mL
Average [G-CSF] at 6 hrs (G-CSF; 20 μg/animal SC): 73000 pg/mL

SMILES: Cc1ccc(-c2cc(C(F)(F)F)nn2-c2ccc(S(N)(=O)=O)cc2)cc1 [celecoxib]
tumor growth rates ([4]; celecoxib alone, various concentrations, versus vehicle): no observed differences in tumor growth rates compared to control

SMILES: CC1(C)CCCN[C@@H]1C(=O)N1CCC[C@H]1B(O)O (relative stereo) [compound 5349]
IC50 ([1]; DPP2): 610 nM
IC50 [2]: 92 nM
IC50 [5]: 250 nM
IC50 [6]: 14000 nM

SMILES: N[C@H](C(=O)N1CCC[C@H]1B(O)O)C12CC3CC(CC(F)(C3)C1)C2 [ARI-5870]
IC50 ([1]; DPP2): 58 nM

IC50 (macrophages): > 10000 nM
SMILES: C[C@H](N)C(=O)N1CCC[C@H]1B(O)O [compound 1129]

IC50 (macrophages): > 20000 nM
SMILES: CC(C)[C@H](N)C(=S)N1CCC[C@H]1B(O)O [compound 2401]

SMILES: CC1([C@H](N)C(=O)N2CCC[C@H]2B(O)O)CCCC1 (relative stereo) [4175CP]
IC50 ([1]; DPP2): 9.2 nM
IC50 [2]: 2.9 nM

SMILES: CC1([C@H](N)C(=O)N2CCC[C@H]2B(O)O)CC1 (relative stereo) [compound 4367]
IC50 ([1]; DPP2): 34 nM
IC50 [2]: 1.4 nM
IC50 [6]: 350 nM

SMILES: CC(C)[C@H](N)C(=O)N1CCC[C@H]1B(O)O [Val-boroPro, Valine-boroProline]
increase of MTD dose on addition of a cPLA2 inhibitor [7]: at least 20 fold
IC50 (macrophages): 49 nM
IC50 (RAW 264.7 WT cells): 98 nM
IC50 (THP-1 sgGFP): 168 nM
IC50 (MV4; 11 Luc-Neo): 60 nM
partial response [8]: 3 patients
Average [G-CSF] at 6 hrs (G-CSF; 20 μg/animal PO): 55000 pg/mL
Average [G-CSF] at 6 hrs (G-CSF; 20 μg/animal SC): 97000 pg/mL
tumor regression in combination with celecoxib ([4]; 20 microgram dose of Val-boroPro plus celecoxib, individual animal curves): facilitated the achievement of tumor regression
antitumor activity in combination with celecoxib ([4]; Val-boroPro plus celecoxib, tumor volumes over time): increased the antitumor activity of Val-boroPro markedly (statistically significantly) and in a dose-dependent manner

SMILES: CC1(C)CCN[C@@H]1C(=O)N1CCC[C@H]1B(O)O (relative stereo) [compound 5363]
IC50 ([1]; DPP2): 110 nM

SMILES: N[C@H](C(=O)N1CCC[C@H]1B(O)O)C12CC3CC(CC(O)(C3)C1)C2 (relative stereo) [ARI-3102A]
IC50 ([1]; DPP2): 81 nM
IC50 (DPP7): > 100 nM

SMILES: N[C@@H](CCC(=O)O)C(=O)N1CCC[C@H]1B(O)O [compound 8120, Glu-boroPro]
Average [G-CSF] at 6 hrs (G-CSF; 20 μg/animal PO): 340 pg/mL
Average [G-CSF] at 6 hrs (G-CSF; 200 μg/animal PO): 160 pg/mL
Average [G-CSF] at 6 hrs (G-CSF; 200 μg/animal SC): 210 pg/mL
Average [G-CSF] at 6 hrs (G-CSF; 2000 μg/animal PO): 2300 pg/mL
Average [G-CSF] at 6 hrs (G-CSF; 2000 μg/animal SC): 16000 pg/mL

IC50 (macrophages): 23 nM
SMILES: N[C@H](C(=O)N1CCC[C@H]1B(O)O)C1CCCCC1 [compound 1797, Crg-boroPro]
Average [G-CSF] at 6 hrs (G-CSF; 20 μg/animal PO): 20000 pg/mL
